Assay results published in patent publication US6399782B1, “Benzimidazole inhibitors of fructose 1,6-bisphosphatase” (Metabasis Therapeutics, Inc., priority 1997, dated 2002).

Assays:
rat hepatocytes = test: Glucose production inhibition and fructose 1,6-bisphosphate accumulation in rat hepatocytes; assay type: cell-based
Protocol: Hepatocytes were prepared from overnight fasted Sprague-Dawley rats (250-300 g) according to the procedure of Berry and Friend (Berry, M. N., Friend, D. S., 1969, J. Cell. Biol. 43, 506-520) as modified by Groen (Groen, A. K., Sips, H. J., Vervoorn, R. C., Tager, J. M., 1982, Eur. J. Biochem. 122, 87-93). Hepatocytes (75 mg wet weight/mL) were incubated in 1 ml Krebs-bicarbonate buffer containing 10 mM Lactate, 1 mM pyruvate, 1 mg/mL BSA, and test compound concentrations from 1 to 500 μM. Incubations were carried out in a 95% oxygen, 5% carbon dioxide atmosphere in closed, 50-mL Falcon tubes submerged in a rapidly shaking water bath (37° C.). After 1 hour, an aliquot (0.25 mL) was removed, transferred to an Eppendorf tube and centrifuged. 50 μL of supernatant was then assayed for glucose content using a Sigma Glucose Oxidase kit as per the manufacturer's instructions.
Isolated rat hepatocytes were prepared as described in Example D and incubated under the identical conditions described. […] After thorough mixing and centrifugation, the supernatant was analyzed for glucose content as described in Example D, and also for fructose 1,6-bisphosphate. Fructose 1,6-bisphosphate was assayed spectrophotometrically by coupling its enzymatic conversion to glycerol 3-phosphate to the oxidation of NADH, which was monitored at 340 nm. […]

[1] = tested on: 18-hour fasted Sprague Dawley rats; test: Glucose lowering following oral administration; assay type: in vivo, rat
Protocol: The compound was prepared in deionized water, adjusted to neutrality with sodium hydroxide, and brought into solution by sonication prior to administration. Blood glucose was measured immediately prior to dosing, and at 1 hour intervals thereafter. Blood samples were obtained from the tail vein, and measurements made by means of a Hemocue glucose analyzer (Hemocue Inc, Mission Viejo, Calif.) used according to the manufacturer's instructions. […] The average glucose lowering in the four responding animals was 62±8.6% relative to saline-treated controls at the 1 hour time point.

[2] = Analysis of drug levels and liver accumulation in rats; assay type: in vivo; details: rat, 20 mg/kg intraperitoneally, one hour post injection
Protocol: Sprague-Dawley rats (250-300 g) were fasted for […] and then dosed intraperitoneally either with saline (n=3) or 20 mgs/kg of FBPase inhibitor (n=4). The vehicle used for drug administration was 10 mM bicarbonate. One hour post injection rats were anesthetized with halothane and a liver biopsy (approx. 1 g) was taken as well as a blood sample (2 ml) from the posterior vena cava. A heparin flushed syringe and needle was used for blood collection. The liver sample was immediately homogenized in ice-cold 10% perchloric acid (3 mL), centrifuged, and the supernatant neutralized with ⅓rd volume of 3 M KOH/3 M KH2CO3. Following centrifugation and filtration, 50 μl of the neutralized extract was ana lyzed for FBPase inhibitor content by HPLC. A reverse phase YMC ODS AQ column ([…]) was used and eluted with a gradient from 10 mM sodium phosphate pH 5.5 to 75% acetonitrile. Absorbance was monitored at 310 nm. […] The methanolic extract was clarified by centrifugation and filtration and then analyzed by HPLC as described above.

[3] = tested on: Zucker Diabetic Fatty rats; test: Inhibition of gluconeogenesis in Zucker Diabetic Fatty rats (14C-bicarbonate incorporation into glucose); assay type: in vivo, rat; details: 50 mg/kg bolus via jugular catheter
Protocol: Nine Zucker Diabetic Fatty rats (16-weeks old, Genetics Models Inc., Indianapolis, Ind.) were fasted at midnight and instrumented with jugular catheters the following morning. […] After 50minutes a bolus of^14 C-sodium bicarbonate ([…]) was administered via the same route. 20 minutes later, the animals were quickly anesthetized with intravenous pentobarbitol and a blood sample (1.5 mL) was taken by cardiac puncture. Blood (0.5 mL) was diluted into 6 mL deionized water and protein precipitated by addition of 1 mL zinc sulfate (0.3 N) and 1 mL barium hydroxide (0.3 N). The mixture was centrifuged (20 minutes, 1000×g) and 5 mL of the resulting supernatant was then combined with 1 g of a mixed bed ion exchange resin (1 part AG 50W-X8, 100-200 mesh, hydrogen form and 2 parts of AG 1-X8, 100-200 mesh, acetate form) to separate ^14C-bicarbonate from ^14C-glucose. The slurry was shaken at room temperature for four hours and then allowed to settle. An aliquot of the supernatant (0.5 mL) was then counted in 5 mL scintillation cocktail.

SMILES: CCc1cc(F)c(N)c2nc(-c3ccc(P(=O)(O)O)o3)n(CC(C)C)c12 [Compound 12.64]
- IC50 (rat hepatocytes; Hepatocyte, Example F, FIG. 5, read-out: IC50 glucose production from lactate/pyruvate): ~3 µM
- accumulation of fructose 1,6-bisphosphate (rat hepatocytes; result in words): dose-dependent accumulation of fructose 1,6 bisphosphate
- blood glucose effect, oral 30 mg/kg ([1]; oral gavage 30 mg/kg, 18-hour fasted rats): without effect
- blood glucose effect, oral 100 mg/kg ([1]; oral gavage 100 mg/kg, 18-hour fasted rats): without effect
- average glucose lowering in the four responding animals ([1]; oral gavage 250 mg/kg, relative to saline-treated controls, 1 hour time point): 62±8.6%
- animals with profound hypoglycemia ([1]; oral gavage 250 mg/kg, within 1 hour of administration): 4 out of 5
- liver level [2]: 90 nmol/g
- plasma level [2]: 85 µM
- reduction of incorporation of 14C-bicarbonate into 14C-glucose [3]: approximately 50%
- 14C-Glucose Produced (cpm/mL blood) ([3]; 14C-bicarbonate after 50 minutes, blood 20 minutes later): 32,827 ± 6130 cpm/mL blood
- % Glucose Produced ([3]; saline = 100): 49.2%
